One data set has as its system rats. Nature of the data set: Reversal of the effect of the mGluR2 PAM JNJ-42153605-induced inhibition of scopolamine-induced hyperlocomotion (SCOP JNJ-42153605). Format: in vivo, rat. The note with it: Rattus norvegicus, rats, reversal criterion total distance >1500 cm. Put shortly:
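Rats got test compound or vehicle 60 min pre-recording, JNJ-42153605 (20 mg/kg, i.v.) 30 min pre-recording, then scopolamine (0.16 mg/kg, i.v.) just before. Total distance over the first 30 min was video-tracked; all-or-none reversal criterion: total distance >1500 cm.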

The test system of another data set is Wiga rats. Nature of the data set: Induction of mydriasis (MYD). Format: in vivo. The following applies: Rattus norvegicus, pupil diameter >25 units, 1-3 h post-administration. The procedure: 3) Induction of Mydriasis
The pupil diameter of Wiga rats was measured with a microscopic micrometer (1 unit=1/24 mm). Criteria for drug-induced effects: pupil diameter >25 units for mydriasis (in controls: 1.9%) 1, 2 or 3 h post-administration of the test compound (wherein the maximum pupil diameter over the full 3 h period is reported).

The test system of the next data set is Male Long Evans rats. Nature of the data set: V-maze test (PCP-disrupted visual-spatial working memory). The note with it: Co. No. 8 at doses 0.16 and 0.31 mg/kg p.o. 4 h before test, PCP 0.75 mg/kg s.c. 30 min prior to test. Format: in vivo, rat. The source says:
Data are reported as Mean±SEM, n=12/group; ANOVA with LSD-post hoc, p vs. familiar arm: *** p<0.001, *<0.05. In FIG. 1, veh means vehicle and CPD means Co. No. 8
The V-maze-test is a two-trial short term visual-spatial working memory task based on spontaneous exploration of a new and a familiar arm in a 2-arm maze (Embrechts et al. (2013) “Longitudinal characterization of the TauPS2APP mouse model of Alzheimer's disease in a two trial discrimination task of visuo-spatial recognition memory”, 45th European Brain and Behaviour Society Meeting 6-9 Sep. 2013, Munich, Abstract P202).
Male Long Evans rats (Janvier, France, body weight 280 to 295 g) were group housed in enriched individually ventilated cages and habituated to environmental conditions for 5 days. After acclimatization, animals were single housed for 4 days until testing. During this period animals were handled for 2 min per day and received sham dosing once a day for 3 days prior to the test. […] The animal's exploration of each arm was automatically quantified using Ethovision XT 7.0 (Noldus, The Netherlands). […] The time spent in the familiar and new arm respectively during the choice session was recorded for 5 min.
Co. No. 8 was evaluated in rats in a series of dose-response studies evaluating doses from 0.16 to 0.63 mg/kg.

For a further data set, the system named is Male Wiga Wistar rats. Nature of the data set: Reversal of LY-404039-induced decrease of palpebral opening in apomorphine-challenged rats (APO LY-404039). Format: in vivo, rat. The note with it: Rattus norvegicus, apomorphine challenged rats. The protocol:
B) In Vivo Pharmacology 1) Reversal of LY-404039-Induced Decrease of Palpebral Opening in Apomorphine-Challenged Rats.
Male Wiga Wistar rats (Crl:WI; Charles River Germany; 220±40 g) were housed under standard laboratory conditions (21±2° C.; 50-65% relative humidity; light-dark cycle set at 12 h; lights on at 6.00 h) and fasted overnight prior to the start of the experiments (tap water remained available ad libitum). During the test period, they were housed in individual cages. Palpebral opening was scored every 5 min over the first hour after injection of apomorphine (1.0 mg/kg, i.v.) in animals either pretreated or not pretreated with LY-404039 (2.5 mg/kg, s.c.) at 1 h prior to the apomorphine injection. The animals were also pretreated with test compound or solvent at a predefined interval before apomorphine challenge. The score system was: (5) exophthalmos, (4) wide open, (3) open for three-quarters, (2) half open, (1) open for one-quarter, (0) closed. The scores for palpebral opening were cumulated over the 60-min observation period.
In animals receiving apomorphine alone the median palpebral opening is 43 whereas in animals receiving apomorphine and LY-404039, the median palpebral opening is 17.

For the next data set, the target named is T1, human mGlu2 receptor (Homo sapiens, UniProt Q14416).
T1 construct: expressed in transfected cells; host or cells: CHO cells
T1 sequence (Q14416 19-872): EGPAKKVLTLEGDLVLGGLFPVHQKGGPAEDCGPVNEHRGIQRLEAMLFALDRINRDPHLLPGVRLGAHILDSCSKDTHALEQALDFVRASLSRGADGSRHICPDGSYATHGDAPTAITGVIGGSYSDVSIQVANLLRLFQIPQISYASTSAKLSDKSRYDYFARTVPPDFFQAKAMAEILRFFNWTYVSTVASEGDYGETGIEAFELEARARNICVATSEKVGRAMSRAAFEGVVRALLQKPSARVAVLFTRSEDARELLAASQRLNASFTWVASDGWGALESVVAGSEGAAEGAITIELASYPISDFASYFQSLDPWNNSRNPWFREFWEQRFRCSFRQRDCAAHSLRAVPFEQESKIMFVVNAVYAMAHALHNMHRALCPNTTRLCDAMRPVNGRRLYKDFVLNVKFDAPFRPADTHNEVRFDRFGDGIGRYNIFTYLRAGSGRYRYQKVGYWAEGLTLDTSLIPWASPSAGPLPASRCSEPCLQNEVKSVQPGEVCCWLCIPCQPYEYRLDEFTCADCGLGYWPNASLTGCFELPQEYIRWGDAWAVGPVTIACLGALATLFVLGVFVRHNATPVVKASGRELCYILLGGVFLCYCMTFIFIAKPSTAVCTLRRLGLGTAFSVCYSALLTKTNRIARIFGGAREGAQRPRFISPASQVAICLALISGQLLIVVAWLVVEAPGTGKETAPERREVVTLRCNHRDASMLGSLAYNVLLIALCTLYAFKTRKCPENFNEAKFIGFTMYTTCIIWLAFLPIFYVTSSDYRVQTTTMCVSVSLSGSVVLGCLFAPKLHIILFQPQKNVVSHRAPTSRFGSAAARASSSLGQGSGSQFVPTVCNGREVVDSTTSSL
Nature of the data set: [35S]GTPγS binding assay (mGluR2 negative allosteric modulation, glutamate ~EC80 60 μM). Format: biochemical. The procedure: 1) [^35S]GTPγS Binding Assay
[^35S]GTPγS Binding Assay
Total reaction volume was 200 μl. […] Membrane-bound radioactivity was counted in a Topcount.
Background: Binding of GTPγS marks nucleotide exchange on a G protein.

The term ED50 denotes the midpoint of the dose-response relation. Usually melting point stands for the temperature, or range, at which the solid turns liquid. A word on the Emax: it is the greatest response seen or fitted, relative to the assay's reference. `C[C@H]1CN(c2ccc(C(F)(F)F)cc2)C(=O)c2c(NC(=O)c3ccc(N)nc3)cnn21` [Co. No. 8, 6-Amino-N-[(7S)-7-methyl-4-oxo-5-[4-(trifluoromethyl)phenyl]-6,7-dihydropyrazolo[1,5-a]pyrazin-3-yl]pyridine-3-carboxamide] showed a melting point of 240.39 °C. Also, the ED50 in the data set with rats (PO (oral route)) was 0.13 mg/kg. Further, the ED50 with rats (SC (subcutaneous route)) worked out at 0.13 mg/kg. The molecule further gave an ED50 in the data set with Wiga rats (PO (oral route)) of 8.7 mg/kg. In the data set on Wiga rats (SC (subcutaneous route)), this molecule returned an ED50 of 7.1 mg/kg. Moreover, the “exploration of the new vs. the familiar arm in the V-maze (reversal of PCP deficit)” value in the data set with Male Long Evans rats is listed as “significantly reversed the PCP deficit”. The ED50 in the data set on Male Wiga Wistar rats (PO (oral route)) was 0.19 mg/kg. Besides, the ED50 in the data set on Male Wiga Wistar rats (SC (subcutaneous route)) was found to be 0.34 mg/kg. The Emax on human mGlu2 receptor (maximal % inhibition relative to the control glutamate response (EC80 glutamate), read-out: GTPγS-hmGluR2 anGT Emax) was determined as 110%. The IC50 on human mGlu2 receptor (membranes from CHO cells transfected with human mGlu2 receptor, glutamate ~EC80 (60 μM), pIC50 = −log IC50 (M), read-out: GTPγS-hmGluR2 anGT pIC50 (converted)) was 2.14e-09 M.

The record behind these values is patent US10519162B2, “6,7-dihydropyrazolo[1,5-α]pyrazin-4(5H)-one compounds and their use as negative allosteric modulators of mGluR2 receptors” (Janssen Pharmaceutica NV, priority 2014, dated 2019).
